Test results from patent US20120101032A1, “NOVEL MACROCYCLIC INHIBITORS OF HEPATITIS C VIRUS REPLICATION” (priority 2010, published 2012).
Read-outs that look alike come from different tables or passages of the source.

Experiments:
hepatitis C replicon = hepatitis C replicon EC50 assay; format: cell-based; conditions: Hepatitis C virus
Text: NS3-NS4 inhibition activity can be determined using known assay methods.

NS3/NS4 complexes = NS3/NS4 complexes (Hepatitis C virus genotype 1a, UniProt P27958); test: biochemical
NS3/NS4 complexes, sequence (P27958 1027-1657, one chain of several): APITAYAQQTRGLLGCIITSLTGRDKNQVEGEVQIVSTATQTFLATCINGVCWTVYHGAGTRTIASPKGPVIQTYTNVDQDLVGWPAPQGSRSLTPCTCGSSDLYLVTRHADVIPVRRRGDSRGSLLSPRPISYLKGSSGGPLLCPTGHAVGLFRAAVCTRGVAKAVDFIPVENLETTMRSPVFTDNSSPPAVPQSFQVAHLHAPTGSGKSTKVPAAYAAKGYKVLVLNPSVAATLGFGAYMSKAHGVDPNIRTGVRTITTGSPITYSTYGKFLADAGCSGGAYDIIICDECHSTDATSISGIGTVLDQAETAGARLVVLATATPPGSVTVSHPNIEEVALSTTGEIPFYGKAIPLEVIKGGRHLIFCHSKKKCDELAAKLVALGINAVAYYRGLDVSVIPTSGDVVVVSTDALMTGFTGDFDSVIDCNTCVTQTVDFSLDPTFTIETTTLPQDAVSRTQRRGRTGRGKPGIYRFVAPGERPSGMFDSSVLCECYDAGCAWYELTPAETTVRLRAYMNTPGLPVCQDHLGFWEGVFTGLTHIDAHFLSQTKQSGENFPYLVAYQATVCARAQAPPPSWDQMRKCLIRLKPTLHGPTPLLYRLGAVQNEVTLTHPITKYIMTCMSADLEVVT
Text: NS3-NS4 inhibition activity can be determined using known assay methods. For example, NS3/NS4 complexes may be formed and inhibitory concentrations of test compounds determined as described in U.S. Patent Application Publication Number 2007/0054842 paragraph numbers 1497-1509, which is incorporated herein by reference in its entirety. Similarly, hepatitis C replicon EC50 may be determined using known assay methods such as described in U.S. Patent Application Publication Number 2007/0054842 paragraph numbers 1510-1515, which is incorporated herein by reference in its entirety. Assays may be conducted at ambient temperature (23° C.) in assay buffer containing 50 mM Tris-HCl, pH 7.5, 15% glycerol, 0.6 mM Lauryldimethylamine Oxide (LDAO), 25 μM NS4A peptide, and 10 mM Dithiothreitol (DTT).

[1] = hepatitis C replicon, read-out: EC50
[2] = NS3-NS4 activity, 23° C., pH 7.5, 25 μM NS4A peptide, read-out: IC50

Compound | EC50 (hepatitis C replicon) [nM] | IC50 (NS3/NS4 complexes) [nM] | EC50 (hepatitis C replicon; [1]) [nM] | IC50 (NS3/NS4 complexes; [2]) [nM]
CC(C)n1c(O[C@@H]2C[C@H]3C(=O)N[C@]4(C(=O)NS(=O)(=O)C5(C)CC5)C[C@H]4/C=C\CCCCC[C@H](NC(=O)OC(C)(C)C)C(=O)N3C2)nc2c(-c3nc(C4CCNCC4)cs3)cccc21 [Compound 182] | 10 to 100 | < 10 | – | –
CC(C)n1c(O[C@@H]2C[C@H]3C(=O)N[C@]4(C(=O)NS(=O)(=O)C5(C)CC5)C[C@H]4/C=C\CCCCC[C@H](N)C(=O)N3C2)nc2c(-c3nc(C(F)(F)F)cs3)cccc21 [Compound 175] | – | – | 10 to 100 | < 10
CC(C)n1c(O[C@@H]2C[C@H]3C(=O)N[C@]4(C(=O)NS(=O)(=O)C5(C)CC5)C[C@H]4/C=C\CCCCC[C@H](N)C(=O)N3C2)nc2c(-c3nc(C4CCCCC4)cs3)cccc21 [Compound 178] | – | – | > 100 | < 10
COc1ccccc1Cc1csc(-c2cccc3c2nc(O[C@@H]2C[C@H]4C(=O)N[C@]5(C(=O)NS(=O)(=O)N(C)C)C[C@H]5/C=C\CCCCC[C@H](NC(=O)OC(C)(C)C)C(=O)N4C2)n3C(C)C)n1 [Compound 147] | – | – | < 10 | < 10
CC(C)n1c(O[C@@H]2C[C@H]3C(=O)N[C@]4(C(=O)NS(=O)(=O)N(C)C)C[C@H]4/C=C\CCCCC[C@H](NC(=O)OC(C)(C)C)C(=O)N3C2)nc2c(-c3nc(-c4ccc(Br)cc4)cs3)cccc21 [Compound 137] | – | – | > 100 | < 10
Cc1ccc2c(nc(O[C@@H]3C[C@H]4C(=O)N[C@]5(C(=O)NS(=O)(=O)N(C)C)C[C@H]5/C=C\CCCCC[C@H](NC(=O)OC(C)(C)C)C(=O)N4C3)n2C(C)C)c1-c1nc(C2CCCC2)cs1 [Compound 168] | – | – | 10 to 100 | < 10
CC(C)n1c(O[C@@H]2C[C@H]3C(=O)N[C@]4(C(=O)NS(=O)(=O)C5(C)CC5)C[C@H]4/C=C\CCCCC[C@H](NC(=O)OC(C)(C)C)C(=O)N3C2)nc2c(-c3nc(Cc4cccc(OC(F)(F)F)c4)cs3)cccc21 [Compound 120] | – | – | 10 to 100 | < 10
CC(C)n1c(O[C@@H]2C[C@H]3C(=O)N[C@]4(C(=O)NS(=O)(=O)N(C)C)C[C@H]4/C=C\CCCCC[C@H](NC(=O)OC(C)(C)C)C(=O)N3C2)nc2c(-c3csc(N4CCCC4)n3)cccc21 [Compound 158] | – | – | < 10 | < 10
CC(C)n1c(O[C@@H]2C[C@H]3C(=O)N[C@]4(C(=O)NS(=O)(=O)C5(C)CC5)C[C@H]4/C=C\CCCCC[C@H](NC(=O)OC(C)(C)C)C(=O)N3C2)nc2c(-c3cscn3)cccc21 [Compound 129] | – | – | < 10 | < 10
CC(C)n1c(O[C@@H]2C[C@H]3C(=O)N[C@]4(C(=O)NS(=O)(=O)N(C)C)C[C@H]4/C=C\CCCCC[C@H](NC(=O)OC(C)(C)C)C(=O)N3C2)nc2c(-c3nc(-c4ccc(OC(F)(F)F)cc4)cs3)cccc21 [Compound 136] | – | – | > 100 | < 10
CC(C)n1c(O[C@@H]2C[C@H]3C(=O)N[C@]4(C(=O)NS(=O)(=O)N(C)C)C[C@H]4/C=C\CCCCC[C@H](NC(=O)OC(C)(C)C)C(=O)N3C2)nc2c(-c3nc(Cc4ccc(OC(F)(F)F)cc4)cs3)cccc21 [Compound 155] | – | – | 10 to 100 | < 10
CC(C)n1c(O[C@@H]2C[C@H]3C(=O)N[C@]4(C(=O)NS(=O)(=O)C5CC5)C[C@H]4/C=C\CCCCC[C@H](NC(=O)OC(C)(C)C)C(=O)N3C2)nc2c(-c3nc(C4CCCCC4)cs3)cccc21 [Compound 172] | – | – | < 10 | < 10
CC(C)n1c(O[C@@H]2C[C@H]3C(=O)N[C@]4(C(=O)NS(=O)(=O)N(C)C)C[C@H]4/C=C\CCCCC[C@H](NC(=O)OC(C)(C)C)C(=O)N3C2)nc2c(-c3csc(-c4ccc(F)c(F)c4)n3)cccc21 [Compound 164] | – | – | > 100 | 10 to 100
COc1cccc(-c2csc(-c3cccc4c3nc(O[C@@H]3C[C@H]5C(=O)N[C@]6(C(=O)NS(=O)(=O)C7(C)CC7)C[C@H]6/C=C\CCCCC[C@H](NC(=O)OC(C)(C)C)C(=O)N5C3)n4C(C)C)n2)c1 [Compound 103] | – | – | < 10 | < 10
CC(C)n1c(O[C@@H]2C[C@H]3C(=O)N[C@]4(C(=O)NS(=O)(=O)N(C)C)C[C@H]4/C=C\CCCCC[C@H](NC(=O)OC(C)(C)C)C(=O)N3C2)nc2c(-c3nc(-c4ccc(F)c(F)c4)cs3)cccc21 [Compound 140] | – | – | < 10 | < 10
CC(C)n1c(O[C@@H]2C[C@H]3C(=O)N[C@]4(C(=O)NS(=O)(=O)C5(C)CC5)C[C@H]4/C=C\CCCCC[C@H](NC(=O)OC(C)(C)C)C(=O)N3C2)nc2c(-c3nc(-c4cccc(F)c4)cs3)cccc21 [Compound 104] | – | – | 10 to 100 | < 10
CC(C)n1c(O[C@@H]2C[C@H]3C(=O)N[C@]4(C(=O)NS(=O)(=O)C5CC5)C[C@H]4/C=C\CCCCC[C@H](N)C(=O)N3C2)nc2c(-c3nc(C4CCCCC4)cs3)cccc21 [Compound 173] | – | – | > 100 | < 10

Compound | EC50 (hepatitis C replicon) [nM] | IC50 (NS3/NS4 complexes) [nM] | EC50 (hepatitis C replicon; [1]) [nM] | IC50 (NS3/NS4 complexes; [2]) [nM]
CC(C)n1c(O[C@@H]2C[C@H]3C(=O)N[C@]4(C(=O)NS(=O)(=O)C5(C)CC5)C[C@H]4/C=C\CCCCC[C@H](NC(=O)OC(C)(C)C)C(=O)N3C2)nc2c(-c3nc(-c4ccc(OC(F)(F)F)cc4)cs3)cccc21 [Compound 110] | – | – | > 100 | < 10
CC(C)n1c(O[C@@H]2C[C@H]3C(=O)N[C@]4(C(=O)NS(=O)(=O)C5(C)CC5)C[C@H]4/C=C\CCCCC[C@H](NC(=O)OC(C)(C)C)C(=O)N3C2)nc2c(-c3nc(C4CCOCC4)cs3)cccc21 [Compound 181] | – | – | < 10 | < 10
CC(C)n1c(O[C@@H]2C[C@H]3C(=O)N[C@]4(C(=O)NS(=O)(=O)N(C)C)C[C@H]4/C=C\CCCCC[C@H](NC(=O)OC(C)(C)C)C(=O)N3C2)nc2c(-c3nc(Cc4ccccc4F)cs3)cccc21 [Compound 156] | – | – | < 10 | < 10
CC(C)n1c(O[C@@H]2C[C@H]3C(=O)N[C@]4(C(=O)NS(=O)(=O)N(C)C)C[C@H]4/C=C\CCCCC[C@H](NC(=O)OC(C)(C)C)C(=O)N3C2)nc2c(-c3csc(N4CCN(C)CC4)n3)cccc21 [Compound 160] | – | – | < 10 | < 10
Cc1ccc(Cc2csc(-c3cccc4c3nc(O[C@@H]3C[C@H]5C(=O)N[C@]6(C(=O)NS(=O)(=O)N(C)C)C[C@H]6/C=C\CCCCC[C@H](NC(=O)OC(C)(C)C)C(=O)N5C3)n4C(C)C)n2)cc1 [Compound 146] | – | – | < 10 | < 10
COc1cccc(Cc2csc(-c3cccc4c3nc(O[C@@H]3C[C@H]5C(=O)N[C@]6(C(=O)NS(=O)(=O)N(C)C)C[C@H]6/C=C\CCCCC[C@H](NC(=O)OC(C)(C)C)C(=O)N5C3)n4C(C)C)n2)c1 [Compound 152] | – | – | < 10 | < 10
COc1ccc2c(O[C@@H]3C[C@H]4C(=O)N[C@]5(C(=O)NS(=O)(=O)C6(C)CC6)C[C@H]5/C=C\CCCCC[C@H](N)C(=O)N4C3)cc(C(C)C)nc2c1C [Compound 502] | – | – | > 100 | < 10
CC(C)n1c(O[C@@H]2C[C@H]3C(=O)N[C@]4(C(=O)NS(=O)(=O)C5(C)CC5)C[C@H]4/C=C\CCCCC[C@H](NC(=O)OC(C)(C)C)C(=O)N3C2)nc2c(-c3nc(C(F)(F)F)cs3)cccc21 [Compound 174] | – | – | < 10 | < 10
Cc1ccc2c(nc(O[C@@H]3C[C@H]4C(=O)N[C@]5(C(=O)NS(=O)(=O)N(C)C)C[C@H]5/C=C\CCCCC[C@H](NC(=O)OC(C)(C)C)C(=O)N4C3)n2C(C)C)c1-c1nc(C(C)C)cs1 [Compound 167] | – | – | 10 to 100 | < 10
CC(C)n1c(O[C@@H]2C[C@H]3C(=O)N[C@]4(C(=O)NS(=O)(=O)N(C)C)C[C@H]4/C=C\CCCCC[C@H](NC(=O)OC(C)(C)C)C(=O)N3C2)nc2c(-c3nc(-c4ccc5c(c4)OCCO5)cs3)cccc21 [Compound 142] | – | – | 10 to 100 | < 10
CC(C)n1c(O[C@@H]2C[C@H]3C(=O)N[C@]4(C(=O)NS(=O)(=O)C5(C)CC5)C[C@H]4/C=C\CCCCC[C@H](N)C(=O)N3C2)nc2c(-c3csc(N4CCCCC4)n3)cccc21 [Compound 170] | 10 to 100 | – | – | < 10
CC(C)c1csc(-c2nc3c(c(O[C@@H]4C[C@H]5C(=O)N[C@]6(C(=O)NS(=O)(=O)C7(C)CC7)C[C@H]6/C=C\CCCCC[C@H](N)C(=O)N5C4)n2)CCCC3)n1 [Compound 304] | > 100 | – | – | 10 to 100
CC(C)n1c(O[C@@H]2C[C@H]3C(=O)N[C@]4(C(=O)NS(=O)(=O)N(C)C)C[C@H]4/C=C\CCCCC[C@H](NC(=O)OC(C)(C)C)C(=O)N3C2)nc2c(-c3nc(Cc4cccc(C(F)(F)F)c4)cs3)cccc21 [Compound 149] | – | – | 10 to 100 | < 10
COc1ccc(Cc2csc(-c3cccc4c3nc(O[C@@H]3C[C@H]5C(=O)N[C@]6(C(=O)NS(=O)(=O)N(C)C)C[C@H]6/C=C\CCCCC[C@H](NC(=O)OC(C)(C)C)C(=O)N5C3)n4C(C)C)n2)cc1 [Compound 157] | – | – | < 10 | < 10
CC(C)(C)OC(=O)N[C@H]1CCCCC/C=C\[C@@H]2C[C@@]2(C(=O)NS(=O)(=O)C2(C)CC2)NC(=O)[C@@H]2C[C@@H](Oc3nc(-c4ccccc4)nc4c3CCCC4)CN2C1=O [Compound 302] | – | – | < 10 | < 10
COc1ccccc1Cc1csc(-c2cccc3c2nc(O[C@@H]2C[C@H]4C(=O)N[C@]5(C(=O)NS(=O)(=O)C6(C)CC6)C[C@H]5/C=C\CCCCC[C@H](NC(=O)OC(C)(C)C)C(=O)N4C2)n3C(C)C)n1 [Compound 115] | – | – | < 10 | < 10
